According to PubChem BioAssay AID328 (DTP/NCI, 2004):
Several values for one entry are separate records, joined by “and”; a condition that tells them apart may be missing. Identical values can stand only once. Toxic doses and inconclusive results are not listed. Non-standard residues stand in square brackets, D forms with d. Residues, ends and D or L forms follow the SMILES beside them. ξ: configuration not given here. *: point of attachment. Cbz = O=C(OCc1ccccc1)*; Boc = CC(C)(C)OC(=O)*; ξK = NCCCCC(N)C(=O)O; OBn = c1ccc(CO*)cc1

Test system: BDF1 mice, P388 leukemia ip, median survival T/C
Assay: NCI In Vivo Anticancer Drug Screen. Data for tumor model P388 Leukemia (intraperitoneal) in B6D2F1 (BDF1) mice
Conditions: endpoint: median survival time, higher = longer survival
Summary of the method: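 Steps: implant the tumour, treat one group with compound and another with vehicle, record survival, then divide treated by control.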

[1] = dose: 100.0 mg/kg/injection, schedule: Q04DX003 (ip), vehicle: Klucel (hydroxypropylcellulose) (HPC)
[2] = dose: 200.0 mg/kg/injection, schedule: Q04DX003 (ip), vehicle: Klucel (hydroxypropylcellulose) (HPC)
[3] = dose: 400.0 mg/kg/injection, schedule: Q04DX003 (ip), vehicle: Klucel (hydroxypropylcellulose) (HPC)
[4] = dose: 200.0 mg/kg/injection, schedule: Q04DX003 (ip), vehicle: saline with Tween-80
[5] = dose: 12.5 mg/kg/injection, schedule: Q04DX003 (ip), vehicle: saline with Tween-80
[6] = dose: 6.25 mg/kg/injection, schedule: Q01DX009 (ip), vehicle: saline
[7] = dose: 12.5 mg/kg/injection, schedule: Q01DX009 (ip), vehicle: saline
[8] = dose: 25.0 mg/kg/injection, schedule: Q01DX009 (ip), vehicle: saline
[9] = dose: 400.0 mg/kg/injection, schedule: Q04DX003 (ip), vehicle: saline
[10] = dose: 50.0 mg/kg/injection, schedule: Q01DX009 (ip), vehicle: saline with Tween-80

CC(=O)C(C)(NCc1ccccc1)c1ccccc1 (stereo unspecified)
T/C (dose: 45.0 mg/kg/injection, schedule: Q01DX001 (ip), vehicle: saline): 104 % of control
T/C (dose: 85.0 mg/kg/injection, schedule: Q01DX001 (ip), vehicle: saline): 108 % of control and 116 % of control
T/C (dose: 100.0 mg/kg/injection, schedule: Q01DX001 (ip), vehicle: saline): 109 % of control
T/C (dose: 135.0 mg/kg/injection, schedule: Q01DX001 (ip), vehicle: saline): 120 % of control
T/C (dose: 200.0 mg/kg/injection, schedule: Q01DX001 (ip), vehicle: saline): 104 % of control
T/C (dose: 300.0 mg/kg/injection, schedule: Q01DX001 (ip), vehicle: saline): 100 % of control
T/C (dose: 400.0 mg/kg/injection, schedule: Q01DX001 (ip), vehicle: saline): 104 % of control

CC1CC(C)(C)N=C(C(C)(C)c2ccccc2)O1 (stereo unspecified)
T/C (dose: 50.0 mg/kg/injection, schedule: Q04DX003 (ip), vehicle: saline sonified): 100 % of control
T/C (dose: 100.0 mg/kg/injection, schedule: Q04DX003 (ip), vehicle: saline sonified): 100 % of control
T/C (dose: 200.0 mg/kg/injection, schedule: Q04DX003 (ip), vehicle: saline sonified): 90 % of control

C/C(=N\Nc1ccc([N+](=O)[O-])cc1[N+](=O)[O-])C(F)(F)F
T/C (dose: 44.0 mg/kg/injection, schedule: Q01DX009 (ip), vehicle: other): 95 % of control
T/C (dose: 66.0 mg/kg/injection, schedule: Q01DX009 (ip), vehicle: other): 100 % of control
T/C (dose: 100.0 mg/kg/injection, schedule: Q01DX009 (ip), vehicle: other): 100 % of control
T/C [1]: 100 % of control
T/C (dose: 150.0 mg/kg/injection, schedule: Q01DX009 (ip), vehicle: other): 95 % of control
T/C (dose: 200.0 mg/kg/injection, schedule: Q01DX009 (ip), vehicle: saline with Tween-80): 115 % of control
T/C [2]: 100 % of control
T/C (dose: 400.0 mg/kg/injection, schedule: Q01DX009 (ip), vehicle: saline with Tween-80): 100 % of control
T/C [3]: 100 % of control

Nc1nc(N)c2ncc(/C=C/c3ccc(Cl)c(Cl)c3)nc2n1
T/C (dose: 100.0 mg/kg/injection, schedule: Q04DX003 (ip), vehicle: saline with Tween-80): 91 % of control
T/C [4]: 90 % of control
T/C (dose: 400.0 mg/kg/injection, schedule: Q04DX003 (ip), vehicle: saline with Tween-80): 108 % of control

COC(=O)C1(Cc2ccccc2)CCCC1(C#N)O[Si](C)(C)C (stereo unspecified)
T/C [5]: 92 % of control
T/C (dose: 25.0 mg/kg/injection, schedule: Q04DX003 (ip), vehicle: saline with Tween-80): 106 % of control
T/C (dose: 50.0 mg/kg/injection, schedule: Q04DX003 (ip), vehicle: saline with Tween-80): 97 % of control

O=C(Nc1ccc(Cl)c(Cl)c1)Nc1c(Oc2ccc(Cl)c(Cl)c2)ccc(Cl)c1S(=O)(=O)O
T/C [6]: 118 % of control
T/C [7]: 109 % of control
T/C [8]: 104 % of control
T/C (dose: 35.0 mg/kg/injection, schedule: Q01DX009 (ip), vehicle: saline): 118 % of control
T/C (dose: 50.0 mg/kg/injection, schedule: Q01DX009 (ip), vehicle: saline): 105 % of control
T/C (dose: 55.0 mg/kg/injection, schedule: Q01DX009 (ip), vehicle: saline): 113 % of control
T/C (dose: 80.0 mg/kg/injection, schedule: Q01DX009 (ip), vehicle: saline): 111 % of control

C[N+]1(C)CCCCC1
T/C [7]: 95 % of control and 100 % of control
T/C [5]: 101 % of control
T/C [8]: 98 % of control and 100 % of control
T/C (dose: 50.0 mg/kg/injection, schedule: Q04DX003 (ip), vehicle: saline): 100 % of control

O=C1C2C3CC4C2C(=O)C2C1C3C42 (stereo unspecified)
T/C (dose: 100.0 mg/kg/injection, schedule: Q04DX003 (ip), vehicle: saline): 90 % of control
T/C (dose: 200.0 mg/kg/injection, schedule: Q04DX003 (ip), vehicle: saline): 102 % of control
T/C [9]: 90 % of control

CCC1CC[N-]CC1.CCC1CC[N-]CC1.[Cl][Pt+2]([Cl])([Cl])[Cl]
T/C (dose: 3.12 mg/kg/injection, schedule: Q01DX009 (ip), vehicle: saline): 107 % of control
T/C [6]: 110 % of control
T/C [7]: 110 % of control

CC(C)(Br)C(=O)c1ccc(-c2ccccc2)cc1
T/C (dose: 12.5 mg/kg/injection, schedule: Q01DX009 (ip), vehicle: water): 109 % of control
T/C (dose: 25.0 mg/kg/injection, schedule: Q01DX009 (ip), vehicle: water): 96 % of control
T/C (dose: 25.0 mg/kg/injection, schedule: Q04DX003 (ip), vehicle: water): 107 % of control
T/C (dose: 50.0 mg/kg/injection, schedule: Q01DX009 (ip), vehicle: water): 117 % of control
T/C (dose: 50.0 mg/kg/injection, schedule: Q04DX003 (ip), vehicle: water): 107 % of control
T/C (dose: 100.0 mg/kg/injection, schedule: Q01DX009 (ip), vehicle: water): 102 % of control
T/C [1]: 90 % of control
T/C (dose: 100.0 mg/kg/injection, schedule: Q04DX003 (ip), vehicle: water): 107 % of control
T/C (dose: 200.0 mg/kg/injection, schedule: Q01DX009 (ip), vehicle: water): 109 % of control
T/C [2]: 100 % of control
T/C (dose: 200.0 mg/kg/injection, schedule: Q04DX003 (ip), vehicle: water): 107 % of control
T/C (dose: 400.0 mg/kg/injection, schedule: Q01DX009 (ip), vehicle: water): 117 % of control
T/C [3]: 100 % of control
T/C (dose: 400.0 mg/kg/injection, schedule: Q04DX003 (ip), vehicle: water): 110 % of control

CC(C)(C)OC(=O)NCC(=O)NC(CCCCNC(=O)OCc1ccccc1)C(=O)OCc1ccccc1 (stereo not drawn) (Boc-Gly-[ξK](Cbz)-OBn)
T/C (dose: 50.0 mg/kg/injection, schedule: Q01DX005 (ip), vehicle: saline with Tween-80): 95 % of control
T/C (dose: 100.0 mg/kg/injection, schedule: Q01DX005 (ip), vehicle: saline with Tween-80): 90 % of control
T/C (dose: 200.0 mg/kg/injection, schedule: Q01DX005 (ip), vehicle: saline with Tween-80): 104 % of control

Cc1cc(=O)n(Cc2ccccc2)c(O)c1C
T/C [1]: 102 % of control
T/C [2]: 94 % of control

Cc1[nH]nc(C(N)=O)c1N=NN(C)C
T/C (dose: 132.0 mg/kg/injection, schedule: Q04DX003 (ip), vehicle: saline with Tween-80): 182 % of control
T/C [4]: 186 % of control
T/C (dose: 300.0 mg/kg/injection, schedule: Q04DX003 (ip), vehicle: saline with Tween-80): 100 % of control

Cc1ccc(-c2cc(-c3ccccc3)n(-c3ccccc3)n2)cc1
T/C (dose: 264.0 mg/kg/injection, schedule: Q04DX003 (ip), vehicle: Klucel (hydroxypropylcellulose) (HPC)): 108 % of control and 109 % of control
T/C [3]: 104 % of control and 116 % of control

CN1C(=O)N(C)C(=O)C(C)(C2(C)C(=O)N(C)C(=O)N(C)C2=O)C1=O
T/C (dose: 100.0 mg/kg/injection, schedule: Q01DX001 (ip), vehicle: saline with Tween-80): 100 % of control
T/C (dose: 200.0 mg/kg/injection, schedule: Q01DX001 (ip), vehicle: saline with Tween-80): 99 % of control
T/C (dose: 400.0 mg/kg/injection, schedule: Q01DX001 (ip), vehicle: saline with Tween-80): 90 % of control

Cc1csc2nc(-c3ccccc3)nc(Cl)c12
T/C (dose: 75.0 mg/kg/injection, schedule: Q04DX003 (ip), vehicle: saline sonified): 105 % of control
T/C (dose: 150.0 mg/kg/injection, schedule: Q04DX003 (ip), vehicle: saline sonified): 120 % of control
T/C (dose: 300.0 mg/kg/injection, schedule: Q04DX003 (ip), vehicle: saline sonified): 110 % of control

C[C@@H]1C[C@@]2(C)[C@@H](CC[C@@H]3[C@@H]2CC[C@]2(C)OC(=O)CC[C@@H]32)CC1=O
T/C (dose: 100.0 mg/kg/injection, schedule: Q04DX003 (ip), vehicle: alcohol): 105 % of control
T/C (dose: 200.0 mg/kg/injection, schedule: Q04DX003 (ip), vehicle: alcohol): 95 % of control
T/C (dose: 264.0 mg/kg/injection, schedule: Q04DX003 (ip), vehicle: saline): 95 % of control and 110 % of control
T/C [9]: 105 % of control

COC(=O)C1(C(=O)OC)N=C(C)OO1
T/C [10]: 121 % of control
T/C (dose: 100.0 mg/kg/injection, schedule: Q01DX009 (ip), vehicle: saline with Tween-80): 112 % of control

CCN(C)c1ccc(/C=C/c2ccnc3ccccc23)cc1
T/C (dose: 12.5 mg/kg/injection, schedule: Q01DX009 (ip), vehicle: saline with Tween-80): 115 % of control
T/C (dose: 25.0 mg/kg/injection, schedule: Q01DX009 (ip), vehicle: saline with Tween-80): 91 % of control
T/C [10]: 99 % of control
